Test results as given in the NIST ThermoML archive (doi:10.1021/acs.jced.7b00002).

Assay: xn = mol fraction of the nth substance listed
Details: 97.6 kPa, Liquid; for viscosity: Capillary tube (Ostwald / Ubbelohde) method; for mass density: Vibrating tube method

CCCCCCCC[n+]1ccn(C)c1.[Cl-] [1-methyl-3-octylimidazolium chloride] + CC(=O)N(C)C
Details | mass density [kg/m3] | viscosity [mPa·s]
303.15 K, x1 = 0.139 | 958.09 | 3.63
303.15 K, x1 = 0.273 | 975.02 | 14.75
303.15 K, x1 = 0.361 | 981.93 | 32.45
303.15 K, x1 = 0.468 | 988.64 | 92.29
303.15 K, x1 = 0.602 | 994.87 | 288.58
303.15 K, x1 = 0.786 | 1001.37 | 1049.5
303.15 K, x1 = 0.877 | 1003.75 | 1865.4
303.15 K, x1 = 1 | 1006.2 | 7339.7
308.15 K, x1 = 0.139 | 954.07 | 3.26
308.15 K, x1 = 0.273 | 971.38 | 12.52
308.15 K, x1 = 0.361 | 978.45 | 26.51
308.15 K, x1 = 0.468 | 985.3 | 70.68
308.15 K, x1 = 0.602 | 991.72 | 210.24
308.15 K, x1 = 0.786 | 998.36 | 714.83
308.15 K, x1 = 0.877 | 1000.8 | 1255
308.15 K, x1 = 1 | 1003.33 | 4272.9
313.15 K, x1 = 0.139 | 950.12 | 2.94
313.15 K, x1 = 0.273 | 967.74 | 10.65
313.15 K, x1 = 0.361 | 974.97 | 21.93
313.15 K, x1 = 0.468 | 981.99 | 55.22
313.15 K, x1 = 0.602 | 988.57 | 156.62
313.15 K, x1 = 0.786 | 995.34 | 502.24
313.15 K, x1 = 0.877 | 997.86 | 853.26
313.15 K, x1 = 1 | 1000.48 | 2766.9
318.15 K, x1 = 0.139 | 946.26 | 2.65
318.15 K, x1 = 0.273 | 964.11 | 9.2
318.15 K, x1 = 0.361 | 971.5 | 18.32
318.15 K, x1 = 0.468 | 978.68 | 44.2
318.15 K, x1 = 0.602 | 985.42 | 119.22
318.15 K, x1 = 0.786 | 992.37 | 358.94
318.15 K, x1 = 0.877 | 994.92 | 594.67
318.15 K, x1 = 1 | 997.64 | 1788.6
323.15 K, x1 = 0.139 | 942.47 | 2.42
323.15 K, x1 = 0.273 | 960.49 | 8.02
323.15 K, x1 = 0.361 | 968.04 | 15.51
323.15 K, x1 = 0.468 | 975.38 | 35.89
323.15 K, x1 = 0.602 | 982.29 | 92.49
323.15 K, x1 = 0.786 | 989.43 | 263.25
323.15 K, x1 = 0.877 | 992 | 425.36
323.15 K, x1 = 1 | 994.82 | 1198.7
328.15 K, x1 = 0.139 | 938.72 | 2.21
328.15 K, x1 = 0.273 | 956.87 | 7.04
328.15 K, x1 = 0.361 | 964.59 | 13.24
328.15 K, x1 = 0.468 | 972.09 | 29.51
328.15 K, x1 = 0.602 | 979.16 | 72.76
328.15 K, x1 = 0.786 | 986.49 | 198.27
328.15 K, x1 = 0.877 | 989.12 | 310.37
328.15 K, x1 = 1 | 992 | 828.3
333.15 K, x1 = 0.139 | 934.99 | 2.04
333.15 K, x1 = 0.273 | 953.26 | 6.22
333.15 K, x1 = 0.361 | 961.14 | 11.44
333.15 K, x1 = 0.468 | 968.81 | 24.7
333.15 K, x1 = 0.602 | 976.05 | 58.34
333.15 K, x1 = 0.786 | 983.55 | 150.45
333.15 K, x1 = 0.877 | 986.24 | 231.3
333.15 K, x1 = 1 | 989.17 | 588.69
338.15 K, x1 = 0.139 | 931.23 | 1.88
338.15 K, x1 = 0.273 | 949.65 | 5.53
338.15 K, x1 = 0.361 | 957.71 | 9.98
338.15 K, x1 = 0.468 | 965.54 | 20.81
338.15 K, x1 = 0.602 | 972.96 | 47.46
338.15 K, x1 = 0.786 | 980.62 | 116.53
338.15 K, x1 = 0.877 | 983.37 | 176.46
338.15 K, x1 = 1 | 986.38 | 426.28
343.15 K, x1 = 0.139 | 927.34 | 1.74
343.15 K, x1 = 0.273 | 946.05 | 4.96
343.15 K, x1 = 0.361 | 954.28 | 8.73
343.15 K, x1 = 0.468 | 962.28 | 17.72
343.15 K, x1 = 0.602 | 969.87 | 38.89
343.15 K, x1 = 0.786 | 977.69 | 91.77
343.15 K, x1 = 0.877 | 980.49 | 136.74
343.15 K, x1 = 1 | 983.63 | 316.66
348.15 K, x1 = 0.139 | 923.35 | 1.62
348.15 K, x1 = 0.273 | 942.44 | 4.47
348.15 K, x1 = 0.361 | 950.85 | 7.7
348.15 K, x1 = 0.468 | 959.03 | 15.26
348.15 K, x1 = 0.602 | 966.79 | 32.38
348.15 K, x1 = 0.786 | 974.78 | 73.67
348.15 K, x1 = 0.877 | 977.62 | 107.08
348.15 K, x1 = 1 | 980.88 | 237.14
353.15 K, x1 = 0.139 | 919.35 | 1.51
353.15 K, x1 = 0.273 | 938.85 | 4.05
353.15 K, x1 = 0.361 | 947.43 | 6.85
353.15 K, x1 = 0.468 | 955.78 | 13.2
353.15 K, x1 = 0.602 | 963.72 | 27.28
353.15 K, x1 = 0.786 | 971.87 | 59.69
353.15 K, x1 = 0.877 | 974.77 | 85.14
353.15 K, x1 = 1 | 978.13 | 181.41

CCCCCCCC[n+]1ccn(C)c1.[Cl-] [1-methyl-3-octylimidazolium chloride] + C[S+](C)[O-]
Details | mass density [kg/m3] | viscosity [mPa·s]
303.15 K, x1 = 0.13 | 1067.88 | 6.85
303.15 K, x1 = 0.253 | 1051.57 | 24.14
303.15 K, x1 = 0.338 | 1042.77 | 55.12
303.15 K, x1 = 0.439 | 1034.29 | 143.43
303.15 K, x1 = 0.574 | 1025.26 | 371.36
303.15 K, x1 = 0.75 | 1015.41 | 1084.7
303.15 K, x1 = 0.862 | 1011.18 | 3235.6
303.15 K, x1 = 1 | 1006.2 | 7339.7
308.15 K, x1 = 0.13 | 1063.71 | 6
308.15 K, x1 = 0.253 | 1047.84 | 19.97
308.15 K, x1 = 0.338 | 1039.2 | 43.8
308.15 K, x1 = 0.439 | 1030.91 | 107.7
308.15 K, x1 = 0.574 | 1022.09 | 264.22
308.15 K, x1 = 0.75 | 1012.38 | 742.47
308.15 K, x1 = 0.862 | 1008.24 | 2150.9
308.15 K, x1 = 1 | 1003.33 | 4272.9
313.15 K, x1 = 0.13 | 1059.55 | 5.24
313.15 K, x1 = 0.253 | 1044.09 | 16.54
313.15 K, x1 = 0.338 | 1035.65 | 34.98
313.15 K, x1 = 0.439 | 1027.54 | 82.42
313.15 K, x1 = 0.574 | 1018.92 | 192.92
313.15 K, x1 = 0.75 | 1009.41 | 508.33
313.15 K, x1 = 0.862 | 1005.31 | 1404.4
313.15 K, x1 = 1 | 1000.48 | 2766.9
318.15 K, x1 = 0.13 | 1055.41 | 4.62
318.15 K, x1 = 0.253 | 1040.39 | 13.89
318.15 K, x1 = 0.338 | 1032.11 | 28.15
318.15 K, x1 = 0.439 | 1024.18 | 63.95
318.15 K, x1 = 0.574 | 1015.75 | 143.95
318.15 K, x1 = 0.75 | 1006.46 | 363.38
318.15 K, x1 = 0.862 | 1002.4 | 943.52
318.15 K, x1 = 1 | 997.64 | 1788.6
323.15 K, x1 = 0.13 | 1051.26 | 4.1
323.15 K, x1 = 0.253 | 1036.65 | 11.8
323.15 K, x1 = 0.338 | 1028.58 | 23.25
323.15 K, x1 = 0.439 | 1020.83 | 50.83
323.15 K, x1 = 0.574 | 1012.58 | 109.49
323.15 K, x1 = 0.75 | 1003.51 | 264.93
323.15 K, x1 = 0.862 | 999.47 | 653.9
323.15 K, x1 = 1 | 994.82 | 1198.7
328.15 K, x1 = 0.13 | 1047.12 | 3.67
328.15 K, x1 = 0.253 | 1032.95 | 10.12
328.15 K, x1 = 0.338 | 1025.06 | 19.36
328.15 K, x1 = 0.439 | 1017.51 | 41.01
328.15 K, x1 = 0.574 | 1009.43 | 84.97
328.15 K, x1 = 0.75 | 1000.56 | 197.17
328.15 K, x1 = 0.862 | 996.58 | 466.77
328.15 K, x1 = 1 | 992 | 828.3
333.15 K, x1 = 0.13 | 1042.98 | 3.31
333.15 K, x1 = 0.253 | 1029.24 | 8.78
333.15 K, x1 = 0.338 | 1021.55 | 16.31
333.15 K, x1 = 0.439 | 1014.19 | 33.28
333.15 K, x1 = 0.574 | 1006.28 | 67.04
333.15 K, x1 = 0.75 | 997.59 | 149.71
333.15 K, x1 = 0.862 | 993.72 | 338.65
333.15 K, x1 = 1 | 989.17 | 588.69
338.15 K, x1 = 0.13 | 1038.85 | 3
338.15 K, x1 = 0.253 | 1025.55 | 7.66
338.15 K, x1 = 0.338 | 1018.05 | 13.91
338.15 K, x1 = 0.439 | 1010.88 | 27.38
338.15 K, x1 = 0.574 | 1003.15 | 53.77
338.15 K, x1 = 0.75 | 994.64 | 115.48
338.15 K, x1 = 0.862 | 990.88 | 250.15
338.15 K, x1 = 1 | 986.38 | 426.28
343.15 K, x1 = 0.13 | 1034.72 | 2.72
343.15 K, x1 = 0.253 | 1021.86 | 6.75
343.15 K, x1 = 0.338 | 1014.56 | 11.95
343.15 K, x1 = 0.439 | 1007.59 | 22.97
343.15 K, x1 = 0.574 | 1000.03 | 43.6
343.15 K, x1 = 0.75 | 991.75 | 90.8
343.15 K, x1 = 0.862 | 988.04 | 189.55
343.15 K, x1 = 1 | 983.63 | 316.66
348.15 K, x1 = 0.13 | 1030.6 | 2.5
348.15 K, x1 = 0.253 | 1018.18 | 5.98
348.15 K, x1 = 0.338 | 1011.07 | 10.37
348.15 K, x1 = 0.439 | 1004.31 | 19.28
348.15 K, x1 = 0.574 | 996.93 | 35.76
348.15 K, x1 = 0.75 | 988.9 | 72.27
348.15 K, x1 = 0.862 | 985.2 | 145.53
348.15 K, x1 = 1 | 980.88 | 237.14
353.15 K, x1 = 0.13 | 1026.47 | 2.29
353.15 K, x1 = 0.253 | 1014.51 | 5.34
353.15 K, x1 = 0.338 | 1007.6 | 9.06
353.15 K, x1 = 0.439 | 1001.04 | 16.49
353.15 K, x1 = 0.574 | 993.83 | 29.9
353.15 K, x1 = 0.75 | 985.96 | 58.87
353.15 K, x1 = 0.862 | 982.37 | 113.93
353.15 K, x1 = 1 | 978.13 | 181.41
